Test results taken from patent US6683092B1, “[3-(C5-14ALKYL-2-OXO-1,2,3,4-TETRAHYDRO-QUINOLIN-6-YL)-3-OXO-PROPENYL]-PHENYL AND [3-(C5-14ALKYL-2-OXO-1,2,3,4- TETRAHYDRO-QUINOLIN-6-YL)-3-OXO-PROPENYL]-HETEROARYL DERIVATIVES HAVING ANTI-TUMOR ACTIVITY” (Allergan, Inc., priority 2003, dated 2004).
Entries after “also recorded” stand apart in the source; their conditions may differ.

Assays:
[1] = tested on: prostate cancer cell line LNCaP; test: Colony (clonogenic) assay, serum-free, LNCaP; assay type: cell-based; conditions: 14 days, concentration giving 50% inhibition of cell growth; for EC50: Homo sapiens, LNCaP, 336 h
Experimental: (§1) Specifically, the following assay procedure was employed to test certain exemplary compounds of the invention in the breast cancer cell line known in the art as MCF-7 and in the prostrate cancer cell line known in the art as LNCaP.
(§2) Set 4 mL cultures in 60 mm petri dishes
(medium for LNCaP—[…] with ITS & linoleic acid)
(§3) Seeding density: LNCaP serum-free 1200 cells/dish; MCF-7 serum-free 1400 cells/dish
(§4) Add compound immediately after setting cultures and then change the media and re-feed with compound at day 2 (or day 3 for assays set on Fridays).
(§5) Incubated for 14 days (serum free lines)
(§6) 2. fix with 10% formal saline for ˜30 mins
(§7) 3. remove formal saline and wash with 2-3 mLs PBS
(§8) 4. stain with 1% methylene blue in PBS, leave this on for ˜1 hr
(§9) 5. remove stain and wash off in tap water
(§10) 6. dry overnight and count the colonies
(§11) The results obtained in these assays are shown in Table 1, expressed in EC50 numbers, where EC50 is the concentration (expressed as nanomolar) of the compound that results in 50% inhibition of the growth of the cells.

[2] = tested on: breast cancer cell line MCF-7; test: Colony (clonogenic) assay, serum-free, MCF-7; assay type: cell-based; conditions: 14 days, concentration giving 50% inhibition of cell growth
Experimental: as §1, §2
(medium for MCF-7—DMEN with L-glutamine & without glucose)
as §3, §4, §5, §6, §7, §8, §9, §10, §11

Molecule | EC50 [1] [nM] | EC50 ([2]; Homo sapiens, MCF7, 336 h) [nM] | EC50 for Breast Cancer Cell Line (MCF-7) [2] | EC50 for Prostate Cancer Cell Line (LNCaP) [1] | EC50 [2] [nM]
4-[3-(1-Phenylethyl-4,4-dimethyl-2-oxo-1,2,3,4-tetrahydro-quinolin-6-yl)-3-oxo-propenyl]-benzoic acid [Compound 8e] | – | – | – | Not Active | 9
CCCCCCCCN1C(=O)CC(C)(C)c2cc(C(=O)C=Cc3ccc(C(=O)O)cc3)ccc21 [Compound 8c, 4-[3-(1-Octyl-4,4-dimethyl-2-oxo-1,2,3,4-tetrahydro-quinolin-6-yl)-3-oxo-propenyl]-benzoic acid] | 52 | 30 | – | – | –
CCCCCCCCCN1C(=O)CC(C)(C)c2cc(C(=O)C=Cc3ccc(C(=O)O)cc3)ccc21 [Compound 8d, 4-[3-(1-Nonyl-4,4-dimethyl-2-oxo-1,2,3,4-tetrahydro-quinolin-6-yl)-3-oxo-propenyl]-benzoic acid] | 155 | 3 | – | – | –

Continued, in another order:

EC50 [1] [nM] | EC50 ([2]; Homo sapiens, MCF7, 336 h) [nM] | EC50 for Breast Cancer Cell Line (MCF-7) [2] | Molecule | EC50 for Prostate Cancer Cell Line (LNCaP) [1] | EC50 [2] [nM]
90 | 9 | – | CCCCCCN1C(=O)CC(C)(C)c2cc(C(=O)C=Cc3ccc(C(=O)O)cc3)ccc21 [Compound 8a, 4-[3-(1-Hexyl-4,4-dimethyl-2-oxo-1,2,3,4-tetrahydro-quinolin-6-yl)-3-oxo-propenyl]-benzoic acid] | – | –
155 | 9 | – | CCCCCCCN1C(=O)CC(C)(C)c2cc(C(=O)C=Cc3ccc(C(=O)O)cc3)ccc21 [Compound 8b, 4-[3-(1-Heptyl-4,4-dimethyl-2-oxo-1,2,3,4-tetrahydro-quinolin-6-yl)-3-oxo-propenyl]-benzoic acid] | – | –
– | – | inactive; also recorded: Not Active | CN1C(=O)CC(C)(C)c2cc(C(=O)C=Cc3ccc(C(=O)O)cc3)ccc21 [Compound 8f, 4-[3-(1-Methyl-4,4-dimethyl-2-oxo-1,2,3,4-tetrahydro-quinolin-6-yl)-3-oxo-propenyl]-benzoic acid] | inactive; also recorded: Not Active | –
